# From paper PMC12112332, “Characterization of Novel and Known Activators of Cannabinoid Receptor Subtype 2 Reveals Mixed Pharmacology That Differentiates Mycophenolate Mofetil and GW-842,166X from MDA7” (International Journal of Molecular Sciences, 2025)
# Where two headings read alike, the source gives them in different places.
# Experiments:
# Assay type in all cases: cell-based
# rat CB2 = target: T1, rat CB2 (Rattus norvegicus, UniProt Q9QZN9); assay: PI hydrolysis (IP1) assay in HEK/Gqi9 cells expressing rat CB2; design: expressed in transfected cells; settings: rCB2/Gqi9 cells
# T1 sequence (Q9QZN9 1-360): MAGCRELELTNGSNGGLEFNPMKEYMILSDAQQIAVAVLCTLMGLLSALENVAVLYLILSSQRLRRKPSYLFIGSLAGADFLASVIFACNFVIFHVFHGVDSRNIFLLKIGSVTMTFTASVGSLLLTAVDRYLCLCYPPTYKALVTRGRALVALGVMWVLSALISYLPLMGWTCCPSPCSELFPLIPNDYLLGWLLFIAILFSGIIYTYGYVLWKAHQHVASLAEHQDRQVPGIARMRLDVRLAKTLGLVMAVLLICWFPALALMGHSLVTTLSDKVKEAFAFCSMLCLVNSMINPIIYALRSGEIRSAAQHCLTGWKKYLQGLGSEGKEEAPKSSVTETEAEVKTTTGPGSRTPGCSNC
# Protocol: In a complementary assay, we used phosphoinositide (PI) hydrolysis in the presence of the chimeric G protein, Gqi9, to assess activity.
# One day prior to experimentation, selected HEK/Gqi9 monoclonal cells stably expressing rat CB2 were plated onto poly-D-lysine coated clear-bottom 384-well plates (15,000 cells per well) in DMEM supplemented with 10% FBS and 20 mM HEPES. Ten minutes prior to the assay, the cell culture medium was replaced with 20 µL 37 °C Hank’s balanced salt solution (HBSS; with Ca^2+, Mg^2+, glucose). IP1 stimulation was then initiated by adding 5 µL of 5× agonist dissolved in HBSS plus 40 mM Li^+, and cells were incubated for an additional hour before aspiration and addition of Lysis Buffer. IP1 levels were determined using the Cisbio HTRF IP-ONE assay kit according to the manufacturer’s instructions, and fluorescence was measured using an Envision plate reader (PerkinElmer, Waltham, MA, USA). Data were acquired as HTRF ratio (665/620) and expressed as nanomolar levels of IP1.
# Human CB2 = Human CB2 (Homo sapiens, UniProt P34972); assay: Activity at the human CB2 receptor (thallium flux)
# Sequence of Human CB2 (P34972 whole entry): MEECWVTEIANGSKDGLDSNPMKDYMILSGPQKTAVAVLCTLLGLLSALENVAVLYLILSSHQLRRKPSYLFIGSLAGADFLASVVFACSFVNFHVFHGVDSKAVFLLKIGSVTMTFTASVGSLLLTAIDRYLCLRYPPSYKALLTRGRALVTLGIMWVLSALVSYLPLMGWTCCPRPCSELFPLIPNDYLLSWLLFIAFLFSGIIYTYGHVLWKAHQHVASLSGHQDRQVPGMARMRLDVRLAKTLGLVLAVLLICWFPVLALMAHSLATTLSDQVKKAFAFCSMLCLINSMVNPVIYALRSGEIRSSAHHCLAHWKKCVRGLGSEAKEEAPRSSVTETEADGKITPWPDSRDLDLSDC
# [1] = target: T2, M4 muscarinic receptor expressed in HEK/GIRK cells (no CB receptor) (Homo sapiens, UniProt P08173); assay: Thallium flux assay in parental HEK/GIRK cells (no CB receptor), acetylcholine as agonist; settings: presence of EC20 acetylcholine, cells without CB receptor
# T2 construct: host or cells: HEK/GIRK cells without CB receptor
# T2 sequence (P08173 1-479): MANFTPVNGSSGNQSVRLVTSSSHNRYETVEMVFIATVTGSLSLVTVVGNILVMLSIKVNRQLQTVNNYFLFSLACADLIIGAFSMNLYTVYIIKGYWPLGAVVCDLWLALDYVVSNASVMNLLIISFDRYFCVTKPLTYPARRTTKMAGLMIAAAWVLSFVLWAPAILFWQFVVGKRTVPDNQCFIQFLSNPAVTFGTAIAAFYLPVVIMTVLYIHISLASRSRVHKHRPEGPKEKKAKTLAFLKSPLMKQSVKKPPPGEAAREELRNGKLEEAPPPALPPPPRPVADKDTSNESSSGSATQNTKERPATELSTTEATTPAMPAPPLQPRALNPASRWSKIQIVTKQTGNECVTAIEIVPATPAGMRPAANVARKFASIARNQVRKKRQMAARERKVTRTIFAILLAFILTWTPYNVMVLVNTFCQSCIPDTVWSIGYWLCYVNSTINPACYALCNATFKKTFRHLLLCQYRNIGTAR
# From the text: Mycophenolate mofetil is an immunosuppressant used to prevent organ transplant rejection and to treat autoimmune disorders such as lupus. To determine if mycophenolate mofetil exerts its activity in the thallium flux assay through rCB2, we tested it for activity in HEK cells expressing GIRK channels but not rCB2. Submaximal concentrations of acetylcholine were used as the agonist, targeting an M4 muscarinic receptor expressed in these HEK/GIRK cells. […] It was also critical to determine if mycophenolate mofetil was selective for the rCB2 versus rCB1 receptors, as activation of rCB1 receptors can have negative side effects, including anxiety, paranoia, and psychosis. […]
# Thallium flux assays were performed as previously described in Niswender et al., 2008 [31]. […] Thallium flux was measured using the Hamamatsu FDSS/μCELL Kinetic Plate Imager (Bridgewater, NJ, USA). After the establishment of a fluorescence baseline (excitation, 480 ± 20 nm; emission, 540 ± 30 nm), 20 µL (2×) of test compound was added to the cells at 1 s and the response was measured. […] Raw kinetic data were analyzed in a multi-step process: (1) Fluorescence readings for each time point in a well were divided by the fluorescence reading at the initial time point to account for differences in cell number, non-uniform illumination, and dye-loading. […]
Structure (SMILES),"PI hydrolysis Max IP1, absence of 2-AG (rat CB2; absence of 2-AG, IP1 concentration)","EC50 (rat CB2; absence of 2-AG, read-out: PI hydrolysis potency, absence of 2-AG)","PI hydrolysis Max IP1, presence of 2-AG (rat CB2; presence of EC20 2-AG, IP1 concentration)","EC50 (rat CB2; presence of EC20 2-AG, read-out: PI hydrolysis potency, presence of 2-AG)",human CB2 receptor % Max (Human CB2),EC50 (Human CB2; read-out: human CB2 receptor pEC50 (converted)),HEK GIRK (+) ACh pEC50 ± SEM % Max ± SEM [1]
COc1c(C)c2c(c(O)c1C/C=C(\C)CCC(=O)OCCN1CCOCC1)C(=O)OC2 [Mycophenolate mofetil],438 ± 32 nM,521 nM,633 ± 122 nM,700 nM,36 ± 4%,2000 nM,Inactive
COc1c(C)c2c(c(O)c1C/C=C(\C)CCC(=O)O)C(=O)OC2 [Mycophenolic acid],–,–,–,–,–,–,Inactive
